biological target: T1, HMG-CoA synthase (Rattus norvegicus, UniProt P17425); assay: HMG-CoA Synthase Inhibition Assay; type: biochemical; conditions: Table I; rat liver enzyme, 1-[14C]-acetyl-CoA incorporation
T1 construct: The livers from male Charles River CD rats (225-350 g) were homogenized; from tissue; host or cells: rat liver (male Charles River CD rats), 100,000 x g supernatant, ammonium sulfate and DEAE-52 fraction
T1 sequence (P17425 1-520): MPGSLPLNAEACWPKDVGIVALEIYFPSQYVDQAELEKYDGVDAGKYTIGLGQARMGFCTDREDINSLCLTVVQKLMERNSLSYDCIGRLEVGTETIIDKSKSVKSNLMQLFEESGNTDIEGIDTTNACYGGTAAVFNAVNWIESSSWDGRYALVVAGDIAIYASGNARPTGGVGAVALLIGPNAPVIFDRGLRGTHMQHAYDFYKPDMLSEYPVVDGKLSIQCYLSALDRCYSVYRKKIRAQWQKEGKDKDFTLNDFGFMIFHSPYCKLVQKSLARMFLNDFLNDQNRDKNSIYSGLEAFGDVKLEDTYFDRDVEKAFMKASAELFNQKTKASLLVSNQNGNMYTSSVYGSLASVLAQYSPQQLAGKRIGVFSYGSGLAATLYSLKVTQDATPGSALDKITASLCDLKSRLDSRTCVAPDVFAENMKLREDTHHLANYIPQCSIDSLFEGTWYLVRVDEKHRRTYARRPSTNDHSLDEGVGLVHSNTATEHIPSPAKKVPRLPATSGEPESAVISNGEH
Method: The intrinisic HMG-CoA synthase inhibition activity of the compounds of this invention is measured by the standard in vitro protocol described below:
The livers from male Charles River CD rats (225-350 g) were homogenized in 0.25 M sucrose which was adjusted with phenylmethylsulfonylfluoride (PMSF) and N-p-tosyl-1-lysine chloromethyl ketone (TLCK) so that the final concentration of each was […], respectively. The homogenate was centrifuged at 15,000× g for 20 minutes, the supernatant filtered through a fine nylon screen to remove most of the fat layer and recentrifuged at 100,000× g for 1 hour. This supernatant was removed and 1 M potassium phosphate, dithiothreitol (DTT) and ethylene glycolbis(β-aminoethyl ether)-N,N,N',N'-tetraacetic acid (EGTA) added to give a final concentration of 0.1 M (pH 7.2), 0.5 mM and 0.1 mM, respectively. Solid ammonium sulfate was added to 50% saturation to the protein solution, it was centrifuged at 15,000× g and the supernatant discarded. This precipitated protein could be stored at -70° C. for at least one month with very little loss of activity. The ammonium sulfate precipitate was dissolved in an minimal amount of 0.06 M potassium phosphate buffer (pH 7.2) containing 0.5 mM dithiothreitol and 0.1 mM EGTA (referred to as 0.06 M phosphate buffer) and dialyzed overnight against 2 liters of the same buffer to remove the ammonium sulfate and to inactivate HMG-CoA lyase [Clinkenbeard, et al., J. Biol. Chem. 250, 3108-3116(1975)].
The dialyzed extract was added to a column of DEAE-52 (Whatman) which had been equilibrated with 0.06 M phosphate buffer (10 mg of protein in 1 ml bed volume of the resin). The DEAE-cellulose was eluted with 0.06 M phosphate buffer until the optical density at 280 nm was essentially zero. This fraction contained the β-ketoacetyl-CoA thiolase activity. The HMG-CoA synthase was eluted from the column with 0.1 M phosphate buffer (pH 7.2) containing 0.5 mM DTT and […] EGTA, and was virtually free of all thiolase activity. The protein was precipitated by the addition of ammonium sulfate to give 50% saturation. This solution was stirred for 10 minutes at 4° C. and the precipitate collected by centrifugation at 15,000 rpm for 10 minutes. The supernatant was discarded and the precipitate dissolved in a minimum of 0.06 M phosphate buffer, pH 7.2 (about 10 ml) and the enzyme stored at -80° C.
HMG-CoA Synthase Inhibition Assay
Enzyme protein (ca. 24 mg) was added to a solution containing […] Tris-HCl (pH 8.0), 11.7 μM MgCl2, 1.17 μM ethylenediaminetetraacetic acid (EDTA), 0.58 μM dithiothreitol, and the indicated concentrations of the test compound (added as a 2 mg/ml solution in dimethylsulfoxide). The incubation took place in a volume of 0.085 ml at 30° in a shaking water bath. After 5 minutes, […] of a solution containing acetoacetyl-CoA and 0.1 μCi of 1-[^14 C]-acetyl-CoA was added to give a final concentrations of 0.1 and 0.4 μM, respectively. The incubation was continued for 10 more minutes and the reaction stopped by the addition of […] of the assay mixture to 0.2 ml of 6N HCl in a glass scintillation vial. The vial was heated for 1 hour at 120° after which time 0.2 ml more of 6N HCl was again added to each vial and the heating continued for another hour. Following this, 1.0 ml of 0.9% saline was added to each vial and finally 10 ml of scintillation liquid. Radioactivity was determined in a Packard Tri-Carb liquid scintillation counter. Percent inhibition is calculated by the formula: [formula]
IC50 values were determined by plotting the log of the concentration of the test compound verses the percentage inhibition and fitting a straight line to the resulting data by using the least squares method.

SMILES | IC50 [nM]
CC[C@@H]1C(=O)N(S(=O)(=O)c2ccc(C)cc2)[C@@H]1COC(=O)c1ccoc1 (relative stereo) [Table I o] | 320
CCCCc1ccc(C(=O)OC[C@@H]2[C@H](CC)C(=O)N2S(=O)(=O)c2ccc(C)cc2)nc1 (relative stereo) [Table I h] | 45
CC[C@@H]1C(=O)N(S(=O)(=O)c2ccc(C)cc2)[C@@H]1COC(=O)c1cccnc1 (relative stereo) [Table I bb] | 64
CC[C@@H]1C(=O)N(S(=O)(=O)c2ccc(C)cc2)[C@@H]1COC(=O)c1ccc(OC)cc1 [Table I i] | 30
CC[C@@H]1C(=O)N(S(=O)(=O)c2ccc(C)cc2)[C@@H]1COC(=O)c1ccc(N)cc1 (relative stereo) [Table I kk] | 47
CC[C@@H]1C(=O)N(S(=O)(=O)c2ccc(C)cc2)[C@@H]1COC(=O)c1cccnc1Oc1ccccc1 (relative stereo) [Table I t] | 33
CC[C@@H]1C(=O)N(S(=O)(=O)c2ccc(C)cc2)[C@@H]1COC(=O)c1cccs1 (relative stereo) [Table I s] | 38
CC[C@@H]1C(=O)N(S(=O)(=O)c2ccc(C)cc2)[C@@H]1COC(=O)c1csc(OC)n1 (relative stereo) [Table I qq] | 45
CC[C@@H]1C(=O)N(S(=O)(=O)c2ccc(C)cc2)[C@@H]1COC(=O)c1ccco1 [Table I gg] | 11
CC[C@@H]1C(=O)N(S(=O)(=O)c2ccc(C)cc2)[C@@H]1COC(=O)c1cccc([N+](=O)[O-])c1 (relative stereo) [Table I k] | 39
CC[C@@H]1C(=O)N(S(=O)(=O)c2ccc(C)cc2)[C@@H]1COC(=O)c1cnc(OC)c(OC)c1 (relative stereo) [Table I oo] | 38
CC[C@@H]1C(=O)N(S(=O)(=O)c2ccc(C)cc2)[C@@H]1COC(=O)c1ccc(OC)nc1 (relative stereo) [Table I f] | 41
CC[C@@H]1C(=O)N(S(=O)(=O)c2ccc(C)cc2)[C@@H]1COC(=O)c1ccc(C(=O)O)cc1 (relative stereo) [Table I x] | 350
CC[C@@H]1C(=O)N(S(=O)(=O)c2ccc(C)cc2)[C@@H]1COC(=O)c1ccnc2ccccc12 (relative stereo) [Table I r] | 25
CC[C@@H]1C(=O)N(S(=O)(=O)c2ccc(C)cc2)[C@@H]1COC(=O)c1ccsc1 (relative stereo) [Table I a] | 710
CC[C@@H]1C(=O)N(S(=O)(=O)c2ccc(C)cc2)[C@@H]1COC(=O)c1ccc(OC)c(OC)n1 (relative stereo) [Table I pp] | 89
CC[C@@H]1C(=O)N(S(=O)(=O)c2ccc(C)cc2)[C@@H]1COC(=O)c1cc2ccccc2o1 (relative stereo) [Table I ff] | 33
CC[C@@H]1C(=O)N(S(=O)(=O)c2ccc(C)cc2)[C@@H]1COC(=O)c1cccc(NS(C)(=O)=O)c1 (relative stereo) [Table I b] | 25
CC[C@@H]1C(=O)N(S(=O)(=O)c2ccc(C)cc2)[C@@H]1COC(=O)c1ccnnc1 (relative stereo) [Table I m] | 82
COc1ccc(C(=O)OC[C@@H]2[C@H](C(C)C)C(=O)N2S(=O)(=O)c2ccc(C)cc2)cc1 (relative stereo) [Table I hh] | 130
CC[C@@H]1C(=O)N(S(=O)(=O)c2ccc(C)cc2)[C@@H]1COC(=O)c1cc2ccccc2oc1=O (relative stereo) [Table I ee] | 50
CCC[C@@H]1C(=O)N(S(=O)(=O)c2ccc(C)cc2)[C@H]1COC(=O)c1ccc(OC)cc1 (relative stereo) [Table I rr] | 35
CC[C@@H]1C(=O)N(S(=O)(=O)c2ccc(C)cc2)[C@@H]1COC(=O)c1cccc(NC(C)=O)c1 (relative stereo) [Table I u] | 72
CCCCNC(=O)c1ccc(C(=O)OC[C@@H]2[C@H](CC)C(=O)N2S(=O)(=O)c2ccc(C)cc2)cc1 (relative stereo) [Table I jj] | 20

same assay, conditions: Table II; rat liver enzyme, 1-[14C]-acetyl-CoA incorporation

SMILES | IC50 [nM]
CC[C@H]1C(=O)N(S(=O)(=O)c2ccc(C)cc2)[C@H]1COC(=O)Cc1ccc(OC)c(OC)c1 (relative stereo) [Table II y] | 30
CC[C@H]1C(=O)N(S(=O)(=O)c2ccc(C)cc2)[C@H]1COC(=O)/C=C/c1cc(OC)c(OC)c(OC)c1 (relative stereo) [Table II t] | 38
CC[C@@H]1C(=O)N(S(=O)(=O)c2ccc(C)cc2)[C@@H]1COC(=O)/C=C/c1cccnc1 (relative stereo) [Table II h] | 31
CC[C@@H]1C(=O)N(S(=O)(=O)c2ccc(C)cc2)[C@@H]1COC(=O)Cc1ccco1 (relative stereo) [Table II l] | 2400
CC[C@H]1C(=O)N(S(=O)(=O)c2ccc(C)cc2)[C@H]1COC(=O)/C=C/c1ccc(OC)c(OC)n1 (relative stereo) [Table II z] | 27
CC[C@@H]1C(=O)N(S(=O)(=O)c2ccc(C)cc2)[C@@H]1COC(=O)/C=C/c1ccc(OC)cc1 [Table II k] | 11
CCOc1ccc(CC(=O)OC[C@@H]2[C@H](CC)C(=O)N2S(=O)(=O)c2ccc(C)cc2)cc1C (relative stereo) [Table II o] | 2.1
CC[C@@H]1C(=O)N(S(=O)(=O)c2ccc(C)cc2)[C@@H]1COC(=O)[C@H](OC)c1ccccc1 [Table II d, cis-(3S), (4S)-3-Ethyl-4-[(R)-α-methoxyphenylacetoxyl]methyl-N-toluenesulfonyl-2-azetidinone] | 18
CC[C@@H]1C(=O)N(S(=O)(=O)c2ccc(C)cc2)[C@@H]1COC(=O)Cc1ccccn1 (relative stereo) [Table II p] | 10

same assay, conditions: Table III; rat liver enzyme, 1-[14C]-acetyl-CoA incorporation

SMILES | IC50 [nM]
CC[C@H]1C(=O)N(S(=O)(=O)c2ccc(C)cc2)[C@H]1COS(=O)(=O)c1ccc(C)cc1 (relative stereo) [Table III] | 110

same assay, conditions: Table IV; rat liver enzyme, 1-[14C]-acetyl-CoA incorporation

SMILES | IC50 [nM]
CC[C@@H]1C(=O)N(S(=O)(=O)c2ccc(C)cc2)[C@H]1C(C)=Cc1ccccc1 (relative stereo) [Table IV e] | 50000
CCC[C@H]1C(=O)N(S(=O)(=O)c2ccc(C)cc2)[C@H]1C=Cc1ccccc1 (relative stereo) [Table IV b] | 2200

same assay, conditions: Table V; rat liver enzyme, 1-[14C]-acetyl-CoA incorporation

SMILES | IC50 [nM]
CCC1C(=O)N(S(=O)(=O)c2ccc(C)cc2)C1C(OC(=O)c1ccc(OC)cc1)c1ccccc1 (stereo not drawn) [Table V e] | 2000
CCC1C(=O)N(S(=O)(=O)c2ccc(C)cc2)C1C(C)OC(=O)c1ccc(OC)cc1 (stereo not drawn) [Table V c] | 120

same assay, conditions: Table VI; rat liver enzyme, 1-[14C]-acetyl-CoA incorporation

SMILES | IC50 [nM]
Cc1ccc(S(=O)(=O)N2C(=O)C(C)(C)C2C(Cc2ccccc2)OC(=O)c2ccccc2)cc1 (stereo not drawn) [Table VI b] | 400
